Test results from the supplement of paper PMC10307832.

Experiments:
Assay in all cases: relative viability (nuclei count vs DMSO), 5 days (fraction); higher = more cells survive
[1] = compound: CC(C)C[C@H](NC(=O)[C@H](CCc1ccccc1)NC(=O)CN1CCOCC1)C(=O)N[C@@H](Cc1ccccc1)C(=O)N[C@@H](CC(C)C)C(=O)[C@@]1(C)CO1 [Carfilzomib] + C[C@@H](Oc1cc(-c2cnn(C3CCNCC3)c2)cnc1N)c1c(Cl)ccc(F)c1Cl [Crizotinib] (partner 1 µM)
How it was run: (§1)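 Relative viability was taken as the ratio of nuclei in treated wells to nuclei in vehicle wells. Lung cancer cell lines in 1536-well plates received compounds by pin tool one day after seeding, either one drug alone or a fixed anchor-drug dose plus five library-drug doses (not always all listed) in √10 steps. Nuclei were counted on 4× images after 5 days of treatment, and values are medians of duplicate plates.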

[2] = compound: C[C@@H](Oc1cc(-c2cnn(C3CCNCC3)c2)cnc1N)c1c(Cl)ccc(F)c1Cl [Crizotinib] + NC(=O)Nc1cc(-c2cccc(F)c2)sc1C(=O)N[C@H]1CCCNC1 [AZD7762] (partner 0.2 µM)
How it was run: as §1

[3] = compound: O=C(c1cc(Cc2n[nH]c(=O)c3ccccc23)ccc1F)N1CCN(C(=O)C2CC2)CC1 [Olaparib] + C[C@@H](Oc1cc(-c2cnn(C3CCNCC3)c2)cnc1N)c1c(Cl)ccc(F)c1Cl [Crizotinib] (partner 1 µM)
How it was run: as §1

[4] = compound: O=C(c1cc(Cc2n[nH]c(=O)c3ccccc23)ccc1F)N1CCN(C(=O)C2CC2)CC1 [Olaparib] + C[C@]1(O)C[C@@H](c2nc(-c3ccc4ccc(-c5ccccc5)nc4c3)c3c(N)nccn32)C1 [Linsitinib] (partner 1 µM)
How it was run: as §1

Cell Line | relative viability ([1]; first compound 0.001 µM) | relative viability ([1]; first compound 0.003162 µM) | relative viability ([1]; first compound 0.01 µM) | relative viability ([1]; first compound 0.03162 µM) | relative viability ([1]; first compound 0.1 µM) | relative viability ([2]; first compound 0.01 µM) | relative viability ([2]; first compound 0.03162 µM) | relative viability ([2]; first compound 0.1 µM) | relative viability ([2]; first compound 0.3162 µM) | relative viability ([2]; first compound 1 µM) | relative viability ([3]; first compound 0.08 µM) | relative viability ([3]; first compound 0.253 µM) | relative viability ([3]; first compound 2.53 µM) | relative viability ([3]; first compound 8 µM) | relative viability ([4]; first compound 0.08 µM) | relative viability ([4]; first compound 0.253 µM) | relative viability ([4]; first compound 2.53 µM) | relative viability ([4]; first compound 8 µM)
NCI-H1437 | 0.915 | 1.04 | 0.898 | 0.835 | 0.184 | 1.03 | 1.13 | 1.09 | 1.13 | 1.09 | 1.07 | 0.814 | 0.903 | 0.618 | 1.18 | 0.927 | 1.02 | 0.788
NCI-H1651 | 0.874 | 0.914 | 0.782 | 0.383 | 0.122 | 0.438 | 0.472 | 0.409 | 0.483 | 0.463 | 0.882 | 0.782 | 0.669 | 0.439 | 1.01 | 0.821 | 0.679 | 0.297
NCI-H1666 | 1.07 | 1.14 | 1.08 | 0.409 | 0.211 | 0.78 | 0.899 | 0.828 | 0.825 |  | 1.09 | 0.777 | 0.685 | 0.602 | 0.901 | 0.841 | 0.75 | 0.655
NCI-H1703 | 0.579 | 0.73 | 0.168 | 0.0733 | 0.0878 | 0.157 | 0.172 | 0.126 | 0.116 | 0.125 | 1.07 | 0.734 | 0.903 | 0.522 | 0.9 | 0.697 | 0.881 | 0.408
NCI-H1734 | 0.658 | 0.836 | 0.616 | 0.435 | 0.111 | 0.51 | 0.509 | 0.553 |  | 0.616 | 0.691 | 0.681 | 0.647 | 0.553 | 0.998 | 0.809 | 0.799 | 0.579
NCI-H1755 | 0.817 | 0.904 | 0.894 | 0.498 | 0.189 | 0.407 | 0.423 | 0.539 | 0.411 | 0.455 | 0.957 | 0.824 | 0.904 | 0.728 | 1.03 | 0.917 | 0.92 | 0.918
NCI-H1792 | 0.946 | 0.938 | 1.01 | 0.985 | 0.642 | 0.634 | 0.881 | 0.626 |  | 0.63 | 1.03 | 0.82 | 0.843 | 0.794 | 0.7 | 0.46 | 0.421 | 0.324
NCI-H1915 | 0.879 | 0.927 | 0.887 | 0.434 | 0.069 | 0.66 | 0.682 | 0.739 | 0.694 | 0.704 | 0.934 | 0.774 | 0.552 | 0.445 | 1.14 | 1.02 | 0.734 | 0.651
